In patent US11446351B2, “Composition for treating one or more estrogen related diseases” (LIFEARC, priority 2018, dated 2022):
Structures can show the parent of a compound that is named as a salt. Where a SMILES comes first, the peptide text is derived from it. [ ]: non-standard residue; d: D form. dPhe(4-Cl) = N[C@H](Cc1ccc(Cl)cc1)C(=O)O; d2Nal = N[C@H](Cc1ccc2ccccc2c1)C(=O)O; d(hCit) = NC(=O)NCCCC[C@@H](N)C(=O)O; Lys(iPr) = CC(C)NCCCC[C@H](N)C(=O)O; d3Pal = N[C@H](Cc1cccnc1)C(=O)O

Legend:
Assay type in all cases: in vivo, human
women [1] = test: Phase I study (Example 2): bone marker deoxypyridinoline (DPD) in urine; settings: 30 mg and 45 mg, days 1-64, FIG. 7
Procedure: In order to evaluate the effect of the treatment with Teverelix TFA on the bone mineral density, two biochemical bone mineral markers was measured in the subjects. Telopeptides type I collagen, cross-linked, […] (CTX) was measured in serum of the treated subjects, and deoxypyridinoline (DPD) was measured in the subject's urine.
Said bone markers were measured on the following days in the test period: 1 (pre-dose), 15, 29, 43, 57, 64
DPD is a dynamic biochemical marker of bone loss. An increase in DPD levels in an early morning urine specimen is a reliable indicator of increased bone loss. The CTX test measures for the presence and concentration of a crosslink peptide sequence of type I collagen, found, among other tissues, in bone. This specific peptide sequence relates to bone turnover because it is the portion that is cleaved by osteoclasts during bone resorption, and its serum levels are therefore proportional to osteoclastic activity at the time the blood sample is drawn.
The concentration of DPD and CTX test were carried out at MOS Pharma Services, Central Lab GmbH, Grossmoorbogen 25, 21079 Hamburg, Germany by means of highly sensitive and specific validated chemi-luminescent (CUA) and enzyme-linked immuno-sorbent (ELISA) methods. The results are shown in FIG. 7 and table 6 respectively.

[2] = Phase I study (Example 2): Teverelix TFA concentrations in serum
Procedure: (§1) Two formulations comprising either 45 mg or 30 mg Teverelix TFA and a placebo formulations, were prepared as described in example 1, i.e. the following formulations were prepared
(§2) The respective formulations were each injected subcutaneous (s.c.) to 24 subjects—12 per group i.e. 8 on active drug 4 on placebo per group. All subjects received a dose on either the active or placebo s.c. on day 3±1 of the menstrual cycle, i.e. • A single dosage of formulation B (45 mg Teverelix TFA) administered s.c. on day 3±1 of the menstrual cycle, • A single dosages of formulation C (30 mg Teverelix TFA) administered s.c. on day 3±1 of the menstrual cycle, and • A single dosage of formulation B placebo or formulation C placebo administered s.c. on day 3±1 of the menstrual cycle.
(§3) The concentration of Teverelix TFA, and Estradiol was measured over a period of 63 days. Additionally, the effect on Teverelix TFA on two bone markers was measured.
The mean Teverelix TFA concentration in the serum of the respective subjects was measured.

women [3] = test: Phase I study (Example 2): estradiol concentrations in serum
Procedure: as §1, §2, §3
The mean estradiol concentration in the respective subjects was measured as described in example 1.

CC(=O)N[C@H](Cc1ccc2ccccc2c1)C(=O)N[C@H](Cc1ccc(Cl)cc1)C(=O)N[C@H](Cc1cccnc1)C(=O)N[C@@H](CO)C(=O)N[C@@H](Cc1ccc(O)cc1)C(=O)N[C@H](CCCCNC(N)=O)C(=O)N[C@@H](CC(C)C)C(=O)N[C@@H](CCCCNC(C)C)C(=O)N1CCC[C@H]1C(=O)N[C@H](C)C(N)=O [Teverelix TFA, N-Ac-d-Nal^1,d-pCl-Phe^2,d-Pal^3,d-(Hci)^6,Lys(iPr)^8,d-Ala^10 trifluoroacetate] (Ac-[d2Nal][dPhe(4-Cl)][d3Pal]SY[d(hCit)]L[Lys(iPr)]P[dA]-NH2; C-terminus assumed)
alteration in bone marker urine DPD during the study (women [1]): no significant alteration | period with quantifiable levels in serum ([2]; 30 mg dose): 42 days | Mean Teverelix TFA concentration in serum ([2]; 30 mg s.c., 0 h): 0.00 ng/L | period with quantifiable levels in serum ([2]; 45 mg dose): 64 days | Mean Teverelix TFA concentration in serum ([2]; 45 mg s.c., 0 h): 0.00 ng/L | Mean Teverelix TFA concentration in serum ([2]; 30 + 45 mg groups, 0 h): 0.00 ng/L | Mean Teverelix TFA concentration in serum ([2]; 30 + 45 mg groups, 0.5 h): 5.79 ng/L | Mean Estradiol concentration in serum (women [3]; 30 mg dosage, day 0 (baseline)): 27.7 ng/L | Mean Estradiol concentration in serum (women [3]; 30 mg dosage, day 0.25): 16.1 ng/L | Mean Estradiol concentration in serum (women [3]; 30 mg dosage, day 0.5): 13.8 ng/L | Mean Estradiol concentration in serum (women [3]; 30 mg dosage, day 1): 12.3 ng/L | Mean Estradiol concentration in serum (women [3]; 30 mg dosage, day 2 (nadir)): 11.2 ng/L | Mean Estradiol concentration in serum (women [3]; 30 mg dosage, day 3): 13.7 ng/L | Mean Estradiol concentration in serum (women [3]; 30 mg dosage, day 4): 19.4 ng/L | Mean Estradiol concentration in serum (women [3]; 30 mg dosage, day 5): 22.6 ng/L | Mean Estradiol concentration in serum (women [3]; 30 mg dosage, day 6): 24.4 ng/L | Mean Estradiol concentration in serum (women [3]; 30 mg dosage, day 7): 31.0 ng/L | Mean Estradiol concentration in serum (women [3]; 30 mg dosage, day 9): 50.2 ng/L | Mean Estradiol concentration in serum (women [3]; 30 mg dosage, day 11): 46.5 ng/L | Mean Estradiol concentration in serum (women [3]; 30 mg dosage, day 13): 59.9 ng/L | Mean Estradiol concentration in serum (women [3]; 30 mg dosage, day 15): 36.3 ng/L | Mean Estradiol concentration in serum (women [3]; 30 mg dosage, day 17): 38.7 ng/L | Mean Estradiol concentration in serum (women [3]; 30 mg dosage, day 19): 51.4 ng/L | Mean Estradiol concentration in serum (women [3]; 30 mg dosage, day 21): 64.5 ng/L | Mean Estradiol concentration in serum (women [3]; 30 mg dosage, day 28): 67.4 ng/L | Mean Estradiol concentration in serum (women [3]; 30 mg dosage, day 35): 60.7 ng/L | Mean Estradiol concentration in serum (women [3]; 30 mg dosage, day 42): 58.6 ng/L | Mean Estradiol concentration in serum (women [3]; 30 mg dosage, day 49): 60.5. ng/L | Mean Estradiol concentration in serum (women [3]; 30 mg dosage, day 56): 105.1 ng/L | Mean Estradiol concentration in serum (women [3]; 30 mg dosage, day 63): 90.7 ng/L | mean estradiol level over the prolonged period (women [3]; 30 mg dose): 40.5 pg/mL | day on which estradiol levels returned to baseline (women [3]; 30 mg group): ≤ 8 days | women who ovulated during the study period (based on peak estradiol levels) (women [3]; 30 mg group): one of the 8 | Mean Estradiol concentration in serum (women [3]; 45 mg dosage, day 0 (baseline)): 21.5 ng/L | Mean Estradiol concentration in serum (women [3]; 45 mg dosage, day 0.25): 16.3 ng/L | Mean Estradiol concentration in serum (women [3]; 45 mg dosage, day 0.5): 11.5 ng/L | Mean Estradiol concentration in serum (women [3]; 45 mg dosage, day 1): 8.4 ng/L | Mean Estradiol concentration in serum (women [3]; 45 mg dosage, day 2 (nadir)): 7.5 ng/L | Mean Estradiol concentration in serum (women [3]; 45 mg dosage, day 3): 11.4 ng/L | Mean Estradiol concentration in serum (women [3]; 45 mg dosage, day 4): 12.3 ng/L | Mean Estradiol concentration in serum (women [3]; 45 mg dosage, day 5): 13.3 ng/L | Mean Estradiol concentration in serum (women [3]; 45 mg dosage, day 6): 17.5 ng/L | Mean Estradiol concentration in serum (women [3]; 45 mg dosage, day 7): 17.8 ng/L | Mean Estradiol concentration in serum (women [3]; 45 mg dosage, day 9): 22.6 ng/L | Mean Estradiol concentration in serum (women [3]; 45 mg dosage, day 11): 36.4 ng/L | Mean Estradiol concentration in serum (women [3]; 45 mg dosage, day 13): 54.9 ng/L | Mean Estradiol concentration in serum (women [3]; 45 mg dosage, day 15): 91.6 ng/L | Mean Estradiol concentration in serum (women [3]; 45 mg dosage, day 17): 105.9 ng/L | Mean Estradiol concentration in serum (women [3]; 45 mg dosage, day 19): 115.1 ng/L | Mean Estradiol concentration in serum (women [3]; 45 mg dosage, day 21): 126.1 ng/L | Mean Estradiol concentration in serum (women [3]; 45 mg dosage, day 28): 80.9 ng/L | Mean Estradiol concentration in serum (women [3]; 45 mg dosage, day 35): 41.6 ng/L | Mean Estradiol concentration in serum (women [3]; 45 mg dosage, day 42): 67.4 ng/L | Mean Estradiol concentration in serum (women [3]; 45 mg dosage, day 49): 92.4 ng/L | Mean Estradiol concentration in serum (women [3]; 45 mg dosage, day 56): 104.9 ng/L | Mean Estradiol concentration in serum (women [3]; 45 mg dosage, day 63): 47.1 ng/L | mean estradiol level over the prolonged period (women [3]; 45 mg dose): 49.0 pg/mL | day on which estradiol levels returned to baseline (women [3]; 45 mg group): ≤ 9 days | women who ovulated during the study period (based on peak estradiol levels) (women [3]; 45 mg group): 5 of the 8 | Mean Estradiol concentration in serum (women [3]; 30 + 45 mg groups, day 0 (baseline)): 24.6 ng/L | Mean Estradiol concentration in serum (women [3]; 30 + 45 mg groups, day 0.25): 16.2 ng/L | Mean Estradiol concentration in serum (women [3]; 30 + 45 mg groups, day 0.5): 12.7 ng/L | Mean Estradiol concentration in serum (women [3]; 30 + 45 mg groups, day 1): 10.4 ng/L | Mean Estradiol concentration in serum (women [3]; 30 + 45 mg groups, day 2): 9.4 ng/L | Mean Estradiol concentration in serum (women [3]; 30 + 45 mg groups, day 3): 12.6 ng/L | Mean Estradiol concentration in serum (women [3]; 30 + 45 mg groups, day 4): 15.8 ng/L | Mean Estradiol concentration in serum (women [3]; 30 + 45 mg groups, day 5): 17.9 ng/L | Mean Estradiol concentration in serum (women [3]; 30 + 45 mg groups, day 6): 20.9 ng/L | Mean Estradiol concentration in serum (women [3]; 30 + 45 mg groups, day 7): 24.4 ng/L | Mean Estradiol concentration in serum (women [3]; 30 + 45 mg groups, day 9): 36.4 ng/L | Mean Estradiol concentration in serum (women [3]; 30 + 45 mg groups, day 11): 41.8 ng/L | Mean Estradiol concentration in serum (women [3]; 30 + 45 mg groups, day 13): 57.2 ng/L | Mean Estradiol concentration in serum (women [3]; 30 + 45 mg groups, day 15): 64.0 ng/L | Mean Estradiol concentration in serum (women [3]; 30 + 45 mg groups, day 17): 72.3 ng/L | Mean Estradiol concentration in serum (women [3]; 30 + 45 mg groups, day 19): 83.3 ng/L | Mean Estradiol concentration in serum (women [3]; 30 + 45 mg groups, day 21): 95.3 ng/L | Mean Estradiol concentration in serum (women [3]; 30 + 45 mg groups, day 28): 74.1 ng/L | Mean Estradiol concentration in serum (women [3]; 30 + 45 mg groups, day 35): 51.1 ng/L | Mean Estradiol concentration in serum (women [3]; 30 + 45 mg groups, day 42): 63.0 ng/L | Mean Estradiol concentration in serum (women [3]; 30 + 45 mg groups, day 49): 76.4 ng/L | Mean Estradiol concentration in serum (women [3]; 30 + 45 mg groups, day 56): 105.0 ng/L | Mean Estradiol concentration in serum (women [3]; 30 + 45 mg groups, day 63): 68.9 ng/L
